The results in this text go back to patent US20150299250A1, “MACROCYCLIC COMPOUNDS AND USES THEREOF” (ADELAIDE RESEARCH & INNOVATION PTY LTD, priority 2012, published 2015).

The subject of assay [1] is panel of sarcoma cell lines (WE-68, VH-64, STA-ET-1, TC-252). In words: Cell viability assay, panel of four sarcoma cell lines (average). The class given is cell-based. The settings on record: for IC50: average of four sarcoma cell lines, read-out: Average IC50 for cancer cell lines. The procedure: (§1) Cell viability assays were performed as previously described. Briefly, cells were seeded in 96 well microtiterplates at a density of 3×10^4 cells per well in the presence of the indicated chemical. Cells were harvested 48 hours post-treatment, centrifuged at 1,300×g, washed in phosphate-buffered saline (PBS) and stained with 7AAD solution (2 μg/mL) (7-amino-actinomycin-D, Invitrogen, Carlsbad, Calif.) for 10 mins at room temperature. Viable cells were determined with the use of a FACS Calibur flow cytometer (Becton Dickinson Immunocytometry Systems), and analyzed with the use of FLOWJO (Tree Star, Inc) and GraphPad Prism (GraphPad Software Inc).
(§2) WE-68 and VH-64 Ewing's sarcoma cells were kindly supplied by F. van Valen (Department of Orthopaedic Surgery, Westfalische-Wilhelms-University, Germany).TC-252 and STA-ET-1 Ewing's sarcoma cells were kindly provided by G. Hamilton (Department of Surgery, University of Vienna, Austria) or P. Ambros (Children's Cancer Research Institute, St Anna Children's Hospital, Vienna, Austria). Primary human embryonic fibroblasts or primary human osteoblasts were collected from the Women's and Children's Hospital (North Adelaide, South Australia, Australia) or Royal Adelaide Hospital with patient consent. Mouse Embryonic Fibroblasts (MEFs) and its p53-null derivative were kindly supplied by Guillermina Lozano (Department of Genetics, Anderson Cancer Centre, University of Texas, Houston, Tex., USA). WE-68 cell lines were grown in RPMI-1640 media, whilst human embryonic fibroblasts and MEFs were grown in Dulbecco's Modified Eagle's Medium (DMEM). Media was supplemented with 10% FCS, 1% PSG and 10 mM HEPES. All cells were maintained at 37° C. in a humidified atmosphere of 5% CO2.

Assay [2] has as its system primary human embryonic fibroblasts. In words: Cell viability assay (7AAD, 48 hours), normal fibroblasts. The class given is cell-based. As to conditions: Fibroblast, 48 hours exposure, read-out: Normal cell lines IC50 (μM) Fibroblasts. The method, then: as §1, §2
Assay [3] concerns primary human osteoblasts. Nature of the assay: Cell viability assay (7AAD, 48 hours), normal osteoblasts. The class given is cell-based. As to conditions: Osteoblast, 48 hours exposure, read-out: Normal cell lines IC50 (μM) Osteoblasts. The procedure: as §1, §2
For assay [4], the system named is TC-252 Ewing's sarcoma cells. In words: Cell viability assay (7AAD, 48 hours), TC-252. The assay is classed as cell-based. The settings on record: 48 hours exposure; read-out: Cancer cell lines IC50 (μM) TC-252. The procedure:
as §1, §2

Assay [5] has as its target T1, 20S proteasome CP-L activity (Oryctolagus cuniculus, UniProt A0A5F9DQW2).
T1 construct: Purified rabbit 20S proteasome
In words: In vitro proteasome activity assay, CP-L (Z-nLPnLD-AMC). The assay is classed as biochemical, rabbit. The settings on record: purified 20S proteasome; highest concentration tested 25,000 nM. The method, then: We initially determined the ability of the novel tripeptide MG132 analogues 1-6 and the macrocycles 3a and 4a to inhibit the three separate protease activities of the 20S proteasome (CT-L, -T-L and CP-L). The assays were performed in vitro using purified 20S proteasome/inhibitor mixtures, with the activity of each subunit of the proteasome assessed upon incubation with its respective target peptide. […] In addition, there is no apparent clear-cut preference for the length of tether (compare compounds 1 to 4), while the introduction of an aryl group at P3 (as in 6) is well tolerated.
Purified rabbit 20S proteasome and fluorogenic CT-L substrate (Suc-LLVY-AMC) were purchased from Boston Biochem (Cambridge, Mass., USA). The T-L and CP-L fluorogenic substrates (Ac-RLR-AMC and Z-nLPnLD-AMC) were purchased from Enzo Life Sciences (Farmingdale, N.Y., USA). The 20S proteasome was diluted to 0.2 μg/μL in 20S proteasome buffer (50 mM HEPES pH 7.6, 150 mM NaCl and 1 mM DDT) and stored at −80° C. Purified 20S proteasome (8 ng) was pre-incubated with the indicated concentrations of inhibitors for 15 minutes and subsequently added to the AMC-labeled substrate peptide (50 μM) in assay buffer (25 mM HEPES, pH 7.5, 0.5 mM EDTA, 0.05% NP-40, and 0.001% SDS (w/v)) at 37° C. for 2 hours. Fluorescent substrate cleavage by the 20S proteasome was linear during this incubation timeframe (Supplementary Figure S4. Hydrolysed 7-amino-4-methylcoumarin (AMC) was subsequently detected with the FLUOstar OPTIMA microplatefluorometer at excitation/emission of 390/460 nm. The activity was estimated in relative fluorescence units and half of the maximal inhibitory activity of the proteasome is represented by IC50 values. A minimum of three biological replicates were performed for each data point.

In assay [6] the target is T2, 20S proteasome T-L activity (Oryctolagus cuniculus, UniProt G1SWK8).
T2 construct: purchased Boston Biochem
T2 sequence (G1SWK8 1-271): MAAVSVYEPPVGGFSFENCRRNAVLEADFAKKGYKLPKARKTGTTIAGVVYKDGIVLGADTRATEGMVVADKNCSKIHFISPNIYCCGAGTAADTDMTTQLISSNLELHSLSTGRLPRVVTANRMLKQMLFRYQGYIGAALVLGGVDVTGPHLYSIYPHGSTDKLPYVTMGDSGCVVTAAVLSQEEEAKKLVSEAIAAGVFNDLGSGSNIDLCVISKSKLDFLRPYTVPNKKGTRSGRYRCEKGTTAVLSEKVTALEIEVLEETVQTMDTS
Nature of the assay: In vitro proteasome activity assay, T-L (Ac-RLR-AMC). The assay is classed as biochemical, rabbit. As to conditions: for IC50: purified 20S proteasome, highest concentration tested 25,000 nM. The procedure:
(§3) The assays were performed in vitro using purified 20S proteasome/inhibitor mixtures, with the activity of each subunit of the proteasome assessed upon incubation with its respective target peptide.
(§4) Purified rabbit 20S proteasome and fluorogenic CT-L substrate (Suc-LLVY-AMC) were purchased from Boston Biochem (Cambridge, Mass., USA). The T-L and CP-L fluorogenic substrates (Ac-RLR-AMC and Z-nLPnLD-AMC) were purchased from Enzo Life Sciences (Farmingdale, N.Y., USA). The 20S proteasome was diluted to 0.2 μg/μL in 20S proteasome buffer (50 mM HEPES pH 7.6, 150 mM NaCl and 1 mM DDT) and stored at −80° C. Purified 20S proteasome (8 ng) was pre-incubated with the indicated concentrations of inhibitors for 15 minutes and subsequently added to the AMC-labeled substrate peptide (50 μM) in assay buffer (25 mM HEPES, pH 7.5, 0.5 mM EDTA, 0.05% NP-40, and 0.001% SDS (w/v)) at 37° C. for 2 hours.

Assay [7] relates to STA-ET-1 Ewing's sarcoma cells. Nature of the assay: Cell viability assay (7AAD, 48 hours), STA-ET-1. The assay is classed as cell-based. As to conditions: 48 hours exposure; read-out: Cancer cell lines IC50 (μM) STA-ET-1. The procedure:
as §1, §2

Assay [8] deals with WE-68 Ewing's sarcoma cells. Nature of the assay: Cell viability assay (7AAD, 48 hours), WE-68. The class given is cell-based. The settings on record: 48 hours exposure; read-out: Cancer cell lines IC50 (μM) WE-68. The method, then:
as §1, §2

Assay [9] deals with normal cell lines (fibroblasts, osteoblasts). In words: Cell viability assay, normal cell lines (average). The class given is cell-based. The settings on record: Homo sapiens; average of fibroblasts and osteoblasts. The method, then: as §1, §2
Assay [10] concerns VH-64 Ewing's sarcoma cells. Nature of the assay: Cell viability assay (7AAD, 48 hours), VH-64. The class given is cell-based. As to conditions: 48 hours exposure; read-out: Cancer cell lines IC50 (μM) VH-64. The method, then: as §1, §2
Assay [11] has as its target bovine α-chymotrypsin (bCT) (Bos taurus, UniProt P00766). Nature of the assay: Bovine chymotrypsin spectrophotometric assay (Suc-Ala-Ala-Pro-Phe-pNA). The class given is biochemical. The method, then:
The activity of bCT was assayed spectrophotometrically with a Varian Cary 5000 UV-VIS-NIR spectrophotometer equipped with a thermostated multicell holder at 25.0±0.1° C. Assay buffer was: Tris-HCl (77 mM), CaCl2 (20 mM), pH 7.8 (pH optimum of α-chymotrypsin {3}). A solution of bCT (21.9 μg/mL) in aq HCl (1 mM) was prepared daily by a 1:40 dilution of a stock solution (874 μg/mL) in aq HCl (1 mM) and kept at 0° C. A 1:100 dilution in ice-cold aq HCl (1 mM) was prepared immediately before starting each measurement. Stock solutions of the substrate Suc-Ala-Ala-Pro-Phe-pNA (10 mM) and all inhibitors (5 mM) were freshly prepared in DMSO and stored at r.t. All compounds were analyzed at five different inhibitor concentrations, [I]. Progress curves were monitored at 405 nm over 6 min and characterized by a linear steady state turnover of the substrate.
The Inhibition studies were performed in the presence of 6% v/v DMSO in a volume of 1 mL containing 0.011 μg/mL bCT, different concentrations of Suc-Ala-Ala-Pro-Phe-pNA (10-100 μM) and inhibitor. Into a cuvette containing 890 μL assay buffer, 10 μL of substrate solution (1-10 mM), inhibitor stock, and DMSO were added to give a total volume of […]. After thoroughly mixing the contents of the cuvette, the enzymatic reaction was initiated by adding 50 μL of bCT solution. Uninhibited enzyme activity was determined by adding DMSO instead of inhibitor solution. Non-enzymatic hydrolysis of Suc-Ala-Ala-Pro-Phe-pNA was analyzed by adding DMSO and 1 mM aqueous HCl instead of inhibitor and enzyme solution, respectively, and found to be negligible. The rate of enzyme-catalyzed hydrolysis of 100 μM substrate was determined without inhibitor in each experiment and was set to 100%. Ki values of inhibitors were determined graphically according to Dixon {4} using mean values of percentage rates obtained in three separate experiments at two different substrate concentrations, [S].

The target of assay [12] is T3, 20S proteasome chymotrypsin-like (CT-L) activity (Oryctolagus cuniculus, UniProt G1T4Q9).
T3 sequence (G1T4Q9 1-263): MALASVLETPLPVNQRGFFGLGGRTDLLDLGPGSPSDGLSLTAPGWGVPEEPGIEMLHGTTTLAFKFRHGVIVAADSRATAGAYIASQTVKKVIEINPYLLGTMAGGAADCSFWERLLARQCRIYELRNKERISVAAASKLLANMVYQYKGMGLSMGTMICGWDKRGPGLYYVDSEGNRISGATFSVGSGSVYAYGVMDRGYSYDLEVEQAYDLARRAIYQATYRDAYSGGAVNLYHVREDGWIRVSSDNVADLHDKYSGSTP
In words: In vitro proteasome activity assay, CT-L (Suc-LLVY-AMC). The class given is biochemical, rabbit. As to conditions: purified 20S proteasome. The procedure:
as §3, §4

T1 sequence (A0A5F9DQW2 1-212): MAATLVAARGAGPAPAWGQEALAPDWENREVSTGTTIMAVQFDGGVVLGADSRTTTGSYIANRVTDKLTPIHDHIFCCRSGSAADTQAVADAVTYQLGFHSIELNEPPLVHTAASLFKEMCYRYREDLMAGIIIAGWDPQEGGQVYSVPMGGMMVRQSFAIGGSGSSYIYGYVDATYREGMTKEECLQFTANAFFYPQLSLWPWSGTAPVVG

On to `CC(C)C[C@H](NC(=O)[C@H](Cc1ccccc1)NC(=O)c1cnccn1)B(O)O` [Bortezomib, reference compound], for which the IC50 in assay [1] was 0.02 µM; in assay [2] it was 0.02 µM; in assay [3], 0.28 µM; in assay [4], 0.01 µM; in assay [5], 438 nM; in [6] it was above 25000 nM. Moreover, the IC50 in assay [7] is below 0.0008 µM; in [8] it was 0.02 µM; in assay [9] it was 150 nM; in assay [10], 0.04 µM. In assay [1] (fold change in potency (IC50) against cancer cell line versus normal cell line), the Therapeutic window entry was “×9.1”. Besides, in assay [6], the “activation of T-L activity” value is on record as “^fBortezomib activated T-L activity by 32%”.

Compound `O=C[C@H](Cc1ccccc1)NC(=O)[C@@H]1CCCCCCCCCCCC(=O)c2ccc([nH]2)C(=O)N1` [Compound 1d, (S)-2,16-dioxo-N—((S)-1-oxo-3-phenylpropan-2-yl)-3,20-diazabicyclo[15.2.1]icosa-1(19),17-diene-4-carboxamide] gave a Ki in [11] of 2520 ± 248 nM.

Consider `O=CC(Cc1ccccc1)NC(=O)C1CCCCOc2ccc(cc2)CCC(=O)c2ccc([nH]2)C(=O)N1` (centres unmarked) [Compound 2d], for which the Ki in assay [11] turned out to be 431 ± 5 nM.

Take `CC(C)CC(C=O)NC(=O)C1Cc2ccc(cc2)OCCCCOc2ccc(cc2)CCC(=O)c2ccc([nH]2)C(=O)N1` (centres unmarked) [Compound 3c]: affinity in [11] was put at a Ki of 1920 ± 167 nM.

With `O=CC(Cc1ccccc1)NC(=O)C1Cc2ccc(cc2)OCCCCOc2ccc(cc2)CCC(=O)c2ccc([nH]2)C(=O)N1` (centres unmarked) [Compound 3d], in assay [11], the affinity corresponds to a Ki of 33 ± 5 nM.

In the case of `CC(C)CC1NC(=O)C(NC(=O)OCc2ccccc2)CCCCn2cc(nn2)COc2ccc(cc2)CC(C=O)NC1=O` (centres unmarked) [Compound 4a], the IC50 in assay [1] is 31.7 µM; in assay [2], above 50 µM; in assay [3], above 50 µM; in [4], 39.4 µM; in assay [5], above 25000 nM; in assay [6] it was above 25000 nM. In addition, the IC50 in assay [7] was 37.6 µM; in [8], 18 µM; in [12] it was 250 nM; in [10], above 50 µM.
